Source: the supplement of paper PMC10307832

Experiments:
Experiment in all cases: relative viability (nuclei count vs DMSO), 5 days (fraction); higher = more cells survive
BAM7 + Vorinostat = compound: CCOC1=CC=CC=C1N=NC2=C(NN(C2=O)C3=NC(=CS3)C4=CC=CC=C4)C [BAM7] + O=C(CCCCCCC(=O)Nc1ccccc1)NO [Vorinostat] (partner 1 µM)
Summary of the method: (§1)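 Dosing by pin tool came one day after lung cancer cell lines were seeded in 1536-well plates, using either one drug or a fixed anchor-drug dose plus five library-drug doses (not always all listed) in √10 steps. After 5 days, nuclei were counted on 4× images. Relative viability is treated-well nuclei count divided by vehicle-well nuclei count, and values are medians of duplicate plates.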

BAM7 + OSI-027 = compound: CCOC1=CC=CC=C1N=NC2=C(NN(C2=O)C3=NC(=CS3)C4=CC=CC=C4)C [BAM7] + COc1cccc2cc(-c3nc([C@H]4CC[C@H](C(=O)O)CC4)n4ncnc(N)c34)[nH]c12 [OSI-027] (partner 0.5 µM)
Summary of the method: as §1

[1] = compound: CCn1c(-c2nonc2N)nc2c(C#CC(C)(C)O)ncc(OC[C@H]3CCCNC3)c21 + C[C@]1(O)C[C@@H](c2nc(-c3ccc4ccc(-c5ccccc5)nc4c3)c3c(N)nccn32)C1 [Linsitinib] (partner 1 µM)
Summary of the method: as §1

[2] = compound: CCn1c(-c2nonc2N)nc2c(C#CC(C)(C)O)ncc(OC[C@H]3CCCNC3)c21 + CC1(C)CCC(c2ccc(Cl)cc2)=C(CN2CCN(c3ccc(C(=O)NS(=O)(=O)c4ccc(N[C@H](CCN5CCOCC5)CSc5ccccc5)c(S(=O)(=O)C(F)(F)F)c4)cc3)CC2)C1 [Navitoclax] (partner 0.5 µM)
Summary of the method: as §1

Cell Line	relative viability (BAM7 + Vorinostat; first compound 0.5 µM)	relative viability (BAM7 + Vorinostat; first compound 5 µM)	relative viability (BAM7 + Vorinostat; first compound 15.81 µM)	relative viability (BAM7 + Vorinostat; first compound 50 µM)	relative viability (BAM7 + OSI-027; first compound 0.5 µM)	relative viability (BAM7 + OSI-027; first compound 5 µM)	relative viability (BAM7 + OSI-027; first compound 15.81 µM)	relative viability (BAM7 + OSI-027; first compound 50 µM)	relative viability ([1]; first compound 0.01 µM)	relative viability ([1]; first compound 0.03162 µM)	relative viability ([1]; first compound 0.1 µM)	relative viability ([1]; first compound 0.3162 µM)	relative viability ([1]; first compound 1 µM)	relative viability ([2]; first compound 0.01 µM)	relative viability ([2]; first compound 0.03162 µM)	relative viability ([2]; first compound 0.1 µM)	relative viability ([2]; first compound 0.3162 µM)	relative viability ([2]; first compound 1 µM)
NCI-H23	0.559	0.674	0.629	0.792	0.492	0.561	0.451	0.526	0.542	0.722	0.619	0.491	0.611	0.782	0.807	0.868	0.794	0.833
NCI-H322M	0.884	0.868	1.05	0.913	0.576	0.617	0.57	0.65	0.976	0.988	0.942	0.89	0.909	1.25	1.27	1.17	1.13	1.23
NCI-H441	1.1	0.607	0.762	0.773	0.578	0.574	0.639	0.694	0.592	0.556	0.67	0.592	0.657	0.48	0.626	0.591	0.65	0.556
NCI-H460	0.657	0.634	0.611	0.647	0.525	0.468	0.55	0.624	0.747	0.752	0.687	0.774	0.64	1.1	1.17	1.13	1.05	1.19
NCI-H520	0.801	0.866	0.702	0.718	0.305	0.263	0.293	0.356	1.03	1.07	0.849	0.795	0.674	1.05	1.11	1.05	0.934	0.797
NCI-H596	0.646	0.716	0.558	0.7	0.686	0.576	0.593	0.725	0.993	1.08	0.931	1.03	1.03	0.914	0.96	0.934	1	0.938
NCI-H647	0.4	0.532	0.556	0.712	0.613	0.622	0.549	0.68	1.25	1.36	1.21	1.16	1.01	1.16	0.96	1.14	1.08	1.14
NCI-H727	1.42	1.09	0.942	0.839	0.591	0.509	0.523	0.738	0.271	0.313	0.257	0.309	0.288	0.387	0.376	0.563	0.373	0.418
NCI-H838	0.741	0.776	0.723	0.673	0.365	0.435	0.405	0.379	1.03	1.05	1.02	0.991	0.975	1.15	1.22	1.2	1.03	1.19
NCI-H1355	0.617	0.553	0.544	0.566	0.441	0.374	0.385	0.395	0.899	0.804	0.877	0.685	0.869	1	0.819	1.02	0.882	0.969
NCI-H1395	0.662	0.678	0.645	0.939	0.684	0.67	0.704	0.97	0.997	0.972	1.12	1	0.904	1.04	1.14	1.11	1.08	0.882
NCI-H1437	0.734	0.669	0.616	0.677	1.19	0.985	0.883	0.972	0.948	1.05	1.04	1.01	0.956	1.05	1.08	1.11	1.09	1.13
NCI-H1651	0.543	0.59	0.661	0.612	0.657	0.758	0.7	0.653	0.926	0.941	0.919	0.871	0.958	1.06	1.02	1.01	1.14	1
NCI-H1666	1.08	0.944	1.01	1.05	0.899	0.786	0.875	0.929	0.805	0.92	0.928	0.732	0.738	0.881	0.835	0.699	0.904	0.871
NCI-H1734	0.841	0.903	0.812	0.832	0.606	0.657	0.602	0.647	0.872	0.879	0.782	0.817	0.884	0.781	0.921	0.814	0.821	0.816
NCI-H1755	0.751	0.867	0.79	0.844	0.81	0.698	0.689	0.719	1.04	1.02	1	0.954	1.01	0.985	0.984	0.981	0.958	1.01
NCI-H1793	0.751	0.715	0.726	1.08	0.271	0.267	0.25	0.233	0.761	0.835	0.756	0.851	0.806	0.381	0.462	0.465	0.375	0.41
NCI-H1915	0.487	0.564	0.537	0.515	0.687	0.674	0.6	0.625	1.08	1.1	1.05	1.12	1.08	0.821	0.778	0.79	0.488	0.76

Cell Line	relative viability (BAM7 + Vorinostat; first compound 0.5 µM)	relative viability (BAM7 + Vorinostat; first compound 5 µM)	relative viability (BAM7 + Vorinostat; first compound 15.81 µM)	relative viability (BAM7 + Vorinostat; first compound 50 µM)	relative viability (BAM7 + OSI-027; first compound 0.5 µM)	relative viability (BAM7 + OSI-027; first compound 5 µM)	relative viability (BAM7 + OSI-027; first compound 15.81 µM)	relative viability (BAM7 + OSI-027; first compound 50 µM)	relative viability ([1]; first compound 0.01 µM)	relative viability ([1]; first compound 0.03162 µM)	relative viability ([1]; first compound 0.1 µM)	relative viability ([1]; first compound 0.3162 µM)	relative viability ([1]; first compound 1 µM)	relative viability ([2]; first compound 0.01 µM)	relative viability ([2]; first compound 0.03162 µM)	relative viability ([2]; first compound 0.1 µM)	relative viability ([2]; first compound 0.3162 µM)	relative viability ([2]; first compound 1 µM)
NCI-H1944	0.521	0.46	0.396	0.43	0.39	0.439	0.434	0.445	1.15	1.17	1.21	1.21	1.21	1.11	0.954	1.13	1.05	1.08
NCI-H1975	0.681	0.713	0.631	0.616	0.496	0.525	0.465	0.532	0.887	1.02	0.913	0.791	0.86	1.03	1.3	1.12	1.14	1.03
NCI-H1993	0.723	0.765	0.71	0.696	0.537	0.538	0.553	0.568	0.774	0.736	0.758	0.731	0.767	0.943	1.01	1.04	0.767	0.961
NCI-H2009	0.67	0.755	0.706	0.693	0.68	0.758	0.581	0.689	1.15	1.19	1.27	1.1	1.19	1.17	1.17	1.2	1.12	1.11
NCI-H2023	0.635	0.577	0.605	0.589	0.357	0.347	0.297	0.506	0.683	0.664	0.708	0.446	0.569	1.02	0.98	0.972	0.932	1.01
NCI-H2085	0.824	0.654	0.74	0.822	0.733	0.571	0.52	0.678	0.843	0.91	0.804	0.879	0.921	1.12	1.09	1.1	1.08	1.07
NCI-H2087	0.852	0.736	0.489	0.475	0.818	0.552	0.441	0.559	0.966	0.746	0.932	0.924	0.838	0.832	1.08	0.961	1.03	1.02
NCI-H2126	0.719	0.597	0.635	0.664	0.662	0.733	0.736	0.641	0.751	0.716	0.695	0.671	0.788	0.908	0.848	0.847	0.927	0.88
NCI-H2228	0.448	0.586	0.552	0.59	0.716	0.545	0.593	0.594	0.682	0.65	0.645	0.585	0.475	0.728	0.673	0.791	0.634	0.787
NCI-H2347	0.691	0.653	0.516	0.588	0.478	0.446	–	0.4	1.05	0.983	0.958	0.904	0.991	0.849	0.751	0.813	0.796	0.882
NCI-H2405	1.02	1.06	1.18	0.917	0.623	0.686	0.608	0.683	0.924	1.06	–	0.794	1.02	0.892	0.873	–	0.883	1
NCI-H3122	0.985	0.887	1.02	1.14	1.03	1.11	1.01	1.28	1.05	0.944	0.972	1.01	1.03	1.05	1	1.06	1.01	1.04
PC-3 [JPC-3]	0.754	0.793	0.775	0.638	0.668	0.698	0.698	0.668	0.959	0.933	0.98	0.927	0.932	0.806	0.788	0.859	0.837	0.809
PC-14	0.86	0.616	0.697	0.7	0.872	0.898	0.764	0.926	0.967	0.975	0.963	0.849	0.919	1.04	1.02	0.976	0.875	1.08
RERF-LC-KJ	0.62	0.601	0.485	0.416	0.472	0.422	0.334	0.404	0.91	0.871	0.855	0.856	0.903	0.944	1.04	0.773	1.17	0.791
SK-LU-1	0.83	0.901	0.784	0.847	0.33	0.362	0.345	0.343	1.06	1.23	1.22	1.19	1.09	0.89	0.936	0.99	0.921	0.761
SK-MES-1	1.04	1.06	1.05	1.04	0.573	0.549	0.545	0.663	1.07	1.11	1.05	1.03	1	1.22	1.22	1.18	1.22	1.2
